Measured values reported in publication PMC12588090, “C6-Alkoxy substituted penicillins are potent non-covalently binding inhibitors of the SARS-CoV-2 main protease” (RSC Medicinal Chemistry, 2025).
Several values for one entry are separate records, joined by “and”; a condition that tells them apart may be missing. Identical values can stand only once. Entries after “also recorded” stand apart in the source; their conditions may differ. Like-named read-outs stand apart in the source and are kept apart here.

Columns and labels:
SARS-CoV-2 M^pro [1] = biological target: T1, SARS-CoV-2 M^pro (Severe acute respiratory syndrome coronavirus 2, UniProt P0DTD1); assay: SPE-MS M^pro inhibition assay; type: biochemical; conditions: for increase in M^pro inhibition potency compared to (S)-sulfoxide 22: ratio of IC50 values
SARS-CoV-2 M^pro [2] = biological target: T1, SARS-CoV-2 M^pro; type: binding; conditions: for covalent reaction with / modification of M^pro / species with mass shifts corresponding to potential acyl–enzyme complexes: β-lactam 15 μM; for covalent reaction with / modification of M^pro: M^pro 3.0 μM (5 : 1), denaturing MS, 20 mM HEPES pH 7.5; for covalent reaction with / modification of M^pro / mass shift of concentration-dependent M^pro adduct / species with mass shifts corresponding to potential acyl–enzyme complexes: >15 h incubation; for mass shift of concentration-dependent M^pro adduct: intensity rises with penicillin derivative : M^pro ratio; for species with mass shifts corresponding to potential acyl–enzyme complexes: M^pro 3.0 μM
[3] = system: human leukocyte elastase (HLE); design: method as in doi:10.1016/S0960-894X(01)80940-9; conditions: cited from earlier work
SARS-CoV-2 M^pro [4] = biological target: T1, SARS-CoV-2 M^pro; conditions: read-out: IC50 (reported) (converted), cited from earlier work
[5] = SPE-MS, M^pro 0.05 μM, substrate 2.0 μM, n = 3, mean ± SD, freshly prepared DMSO stocks for 8, read-out: IC50
[6] = SPE-MS, M^pro 0.05 μM, substrate 2.0 μM, n = 3, mean ± SD, freshly prepared DMSO stocks for 8
[7] = IC50, SPE-MS, M^pro 0.05 μM, substrate 2.0 μM, n = 3, mean ± SD, freshly prepared DMSO stocks for 8
[8] = literature value given in Table 1

CCO[C@@]1(NC(=O)COc2ccccc2)C(=O)N2[C@@H](C(=O)OCc3ccccc3)C(C)(C)S(=O)(=O)[C@@H]21 [10a]
IC50 (SARS-CoV-2 M^pro [1]; [5]): 5.8 ± 1.9 µM

CC1(C)S[C@H]2N(C(=O)[C@]2(NC(=O)COc2ccccc2)OCc2ccccc2)[C@H]1C(=O)OCc1ccccc1 [16c]
IC50 (SARS-CoV-2 M^pro [1]; [6]): inactive
IC50 (SARS-CoV-2 M^pro [1]; [5]): > 50 µM

CO[C@H]1C(=O)N2[C@@H]1SC(C)(C)[C@@H]2C(=O)OCc1ccccc1 [26a]
IC50 (SARS-CoV-2 M^pro [1]; [5]): 1.2 ± 0.1 µM
covalent reaction with / modification of M^pro (SARS-CoV-2 M^pro [2]): in no case were substantial amounts of species corresponding to covalent modification observed; also recorded: did not evidence covalent modification

CCO[C@H]1C(=O)N2[C@@H]1SC(C)(C)[C@@H]2C(=O)OCc1ccccc1 [26b]
IC50 (SARS-CoV-2 M^pro [1]; [5]): 0.8 ± 0.1 µM

CC(C)O[C@H]1C(=O)N2[C@@H]1SC(C)(C)[C@@H]2C(=O)OCc1ccccc1 [26c]
IC50 (SARS-CoV-2 M^pro [1]; [5]): 47 ± 13 µM

CC(C)(C)O[C@H]1C(=O)N2[C@@H]1SC(C)(C)[C@@H]2C(=O)OCc1ccccc1 [26d]
IC50 (SARS-CoV-2 M^pro [1]; [5]): 39 ± 9 µM

CC1(C)SC2C(Oc3ccccc3)C(=O)N2C1C(=O)OCc1ccccc1 (stereo not shown) [26e]
IC50 (SARS-CoV-2 M^pro [1]; [5]): > 50 µM

CC1(C)SC2C(OCc3ccccc3)C(=O)N2C1C(=O)OCc1ccccc1 (stereo not shown) [26f]
IC50 (SARS-CoV-2 M^pro [1]; [5]): 7.3 ± 1.4 µM

CO[C@H]1C(=O)N2[C@@H](C(=O)OCc3ccccc3)C(C)(C)S(=O)(=O)[C@H]12 [27a]
IC50 (SARS-CoV-2 M^pro [1]; [7]): 7.7 ± 4.9 µM
covalent reaction with / modification of M^pro (SARS-CoV-2 M^pro [2]): in no case were substantial amounts of species corresponding to covalent modification observed; also recorded: did not evidence covalent modification

CCO[C@H]1C(=O)N2[C@@H](C(=O)OCc3ccccc3)C(C)(C)S(=O)(=O)[C@H]12 [27b]
IC50 (SARS-CoV-2 M^pro [1]; [5]): 44 ± 4 µM
inhibition of HLE [3]: covalent inhibitors

CC(C)O[C@H]1C(=O)N2[C@@H](C(=O)OCc3ccccc3)C(C)(C)S(=O)(=O)[C@H]12 [27c]
IC50 (SARS-CoV-2 M^pro [1]; [5]): 19 ± 14 µM

CC(C)(C)O[C@H]1C(=O)N2[C@@H](C(=O)OCc3ccccc3)C(C)(C)S(=O)(=O)[C@H]12 [27d]
IC50 (SARS-CoV-2 M^pro [1]; [5]): 21 ± 3 µM

CC1(C)C(C(=O)OCc2ccccc2)N2C(=O)C(Oc3ccccc3)C2S1(=O)=O (stereo not shown) [27e]
IC50 (SARS-CoV-2 M^pro [1]; [5]): > 50 µM

CC1(C)C(C(=O)OCc2ccccc2)N2C(=O)C(OCc3ccccc3)C2S1(=O)=O (stereo not shown) [27f]
IC50 (SARS-CoV-2 M^pro [1]; [5]): 35 ± 2 µM
inhibition of HLE [3]: covalent inhibitors

CC1(C)[C@H](C(=O)OCc2ccccc2)N2C(=O)[C@](NC(=O)COc3ccccc3)(O[C@@H]3CCNC3=O)[C@H]2S1(=O)=O [C00006]
IC50 (SARS-CoV-2 M^pro [1]; [5]): 5.3 ± 1.6 µM

CC1(C)[C@H](C(=O)OCc2ccccc2)N2C(=O)[C@](NC(=O)COc3ccccc3)(OCc3ccccc3)[C@H]2S1(=O)=O [C00008]
IC50 (SARS-CoV-2 M^pro [1]; [5]): 8.3 ± 2.6 µM

CC1(C)S[C@@H]2[C@H](NC(=O)Cc3ccccc3)C(=O)N2[C@H]1C(=O)O [C00011, reference compound]
IC50 (SARS-CoV-2 M^pro [1]; [7]): > 50 µM
IC50 (SARS-CoV-2 M^pro [4]; literature value in Table 2): > 50 µM

CC1(C)[C@H](C(=O)OCc2ccccc2)N2C(=O)[C@@H](NC(=O)COc3ccccc3)[C@H]2S1(=O)=O [compound 1, penicillin V sulfone benzyl ester]
IC50 (SARS-CoV-2 M^pro [1]; [5]): 2.9 ± 0.4 µM
IC50 (SARS-CoV-2 M^pro [4]; [8]): ~6.6 µM

COC1(NC(=O)Cc2ccccc2)C(=O)N2C1[S+]([O-])C(C)(C)C2C(=O)OCc1ccc([N+](=O)[O-])cc1 (stereo not shown) [compound 2]
IC50 (SARS-CoV-2 M^pro [1]; [5]): 0.5 ± 0.1 µM
increase in M^pro inhibition potency compared to (S)-sulfoxide 22 (SARS-CoV-2 M^pro [1]): ~9 fold
mass shift of M^pro adduct (SARS-CoV-2 M^pro [2]; 5 : 1 inhibitor : M^pro, after 45 min, low levels): +32 Da
mass shift of M^pro adduct (SARS-CoV-2 M^pro [2]; 5 : 1 inhibitor : M^pro, formed within 15 min, increasing intensity): +498 Da
mass shift of M^pro adduct (SARS-CoV-2 M^pro [2]; 5 : 1 inhibitor : M^pro, t = 0 min / initial, weak intensity): +515 Da
mass shift of M^pro adduct (SARS-CoV-2 M^pro [2]; 10:1 inhibitor : M^pro, after 45 min, low intensity): +32 Da
mass shift of M^pro adduct (SARS-CoV-2 M^pro [2]; 10:1 inhibitor : M^pro, increasing intensity over 45 min): +498 Da
mass shift of M^pro adduct (SARS-CoV-2 M^pro [2]; 10:1 inhibitor : M^pro, initial formation): +515 Da
mass shift of concentration-dependent M^pro adduct (SARS-CoV-2 M^pro [2]): +32 Da
covalent reaction with / modification of M^pro (SARS-CoV-2 M^pro [2]): in no case were substantial amounts of species corresponding to covalent modification observed
species with mass shifts corresponding to potential acyl–enzyme complexes (SARS-CoV-2 M^pro [2]): low levels
IC50 (SARS-CoV-2 M^pro [4]; literature value in Table 2): ~3.5 µM

CO[C@@]1(NC(=O)Cc2ccccc2)C(=O)N2[C@@H](C(=O)OCc3ccccc3)C(C)(C)[S@@+]([O-])[C@@H]21 [compound 3, C6-methoxy (R)-sulfoxide penicillin G benzyl ester]
IC50 (SARS-CoV-2 M^pro [1]; [5]): ~0.8 µM and 0.8 µM
increase in M^pro inhibition potency compared to (S)-sulfoxide 22 (SARS-CoV-2 M^pro [1]): ~9 fold
mass shift of concentration-dependent M^pro adduct (SARS-CoV-2 M^pro [2]): +32 Da
covalent reaction with / modification of M^pro (SARS-CoV-2 M^pro [2]): in no case were substantial amounts of species corresponding to covalent modification observed
species with mass shifts corresponding to potential acyl–enzyme complexes (SARS-CoV-2 M^pro [2]): low levels

CC1(C)S[C@@H]2[C@H](NC(=O)COc3ccccc3)C(=O)N2[C@H]1C(=O)OCc1ccccc1 [compound 5]
IC50 (SARS-CoV-2 M^pro [1]; [7]): > 50 µM
IC50 (SARS-CoV-2 M^pro [1]; [6]): no inhibition in the tested concentration range
IC50 (SARS-CoV-2 M^pro [4]; [8]): > 50 µM

CC1(C)C(C(=O)OCc2ccccc2)N2C(=O)C(NC(=O)COc3ccccc3)C2[S+]1[O-] (stereo not shown) [compound 6]
IC50 (SARS-CoV-2 M^pro [1]; [5]): 6.3 ± 1 µM
IC50 (SARS-CoV-2 M^pro [4]; [8]): ~23 µM

COC1(NC(=O)COc2ccccc2)C(=O)N2C1[S+]([O-])C(C)(C)C2C(=O)OCc1ccccc1 (stereo not shown) [compound 7]
IC50 (SARS-CoV-2 M^pro [1]; [5]): ~2.3 µM and 2.3 µM
covalent reaction with / modification of M^pro (SARS-CoV-2 M^pro [2]): in no case were substantial amounts of species corresponding to covalent modification observed; also recorded: low levels of reaction

CO[C@@]1(NC(=O)COc2ccccc2)C(=O)N2[C@@H](C(=O)OCc3ccccc3)C(C)(C)S[C@@H]21 [compound 8]
IC50 (SARS-CoV-2 M^pro [1]; [6]): no inhibition in the tested concentration range
IC50 (SARS-CoV-2 M^pro [1]; [5]): > 50 µM
IC50 (SARS-CoV-2 M^pro [1]; additional replicates using premade DMSO stock solutions, read-out: IC50): ~5 µM

CO[C@@]1(NC(=O)COc2ccccc2)C(=O)N2[C@@H](C(=O)OCc3ccccc3)C(C)(C)S(=O)(=O)[C@@H]21 [compound 9]
IC50 (SARS-CoV-2 M^pro [1]; [6]): inactive
IC50 (SARS-CoV-2 M^pro [1]; [5]): > 50 µM
covalent reaction with / modification of M^pro (SARS-CoV-2 M^pro [2]): in no case were substantial amounts of species corresponding to covalent modification observed

CC1(C)S[C@@H]2[C@H](NC(=O)Cc3ccccc3)C(=O)N2[C@H]1C(=O)OCc1ccccc1 [compound 18]
IC50 (SARS-CoV-2 M^pro [1]; [5]): > 50 µM

CC1(C)[C@H](C(=O)OCc2ccccc2)N2C(=O)[C@@H](NC(=O)Cc3ccccc3)[C@H]2S1(=O)=O [compound 19]
IC50 (SARS-CoV-2 M^pro [1]; [5]): > 50 µM

CO[C@@]1(NC(=O)Cc2ccccc2)C(=O)N2[C@@H](C(=O)OCc3ccccc3)C(C)(C)S(=O)(=O)[C@@H]21 [compound 20]
IC50 (SARS-CoV-2 M^pro [1]; [5]): 11 ± 4 µM

CC1(C)C(C(=O)OCc2ccccc2)N2C(=O)C(NC(=O)Cc3ccccc3)C2[S+]1[O-] (stereo not shown) [compound 21]
IC50 (SARS-CoV-2 M^pro [1]; [5]): > 50 µM

CO[C@@]1(NC(=O)Cc2ccccc2)C(=O)N2[C@@H](C(=O)OCc3ccccc3)C(C)(C)[S+]([O-])[C@@H]21 (stereo partly shown) [compound 22]
IC50 (SARS-CoV-2 M^pro [1]; [5]): ~7.3 µM and 7.3 µM
covalent reaction with / modification of M^pro (SARS-CoV-2 M^pro [2]): no evidence for covalent M^pro modification

CC1(C)[C@H](C(=O)OCc2ccccc2)N2C(=O)[C@@H](NC(=O)Cc3ccccc3)[C@H]2[S@+]1[O-] [compound 23]
IC50 (SARS-CoV-2 M^pro [1]; [5]): > 50 µM

CO[C@@]1(NC(=O)Cc2ccccc2)C(=O)N2[C@@H](C(=O)O)C(C)(C)S[C@@H]21 [compound 24, C6-methoxypenicillin G acid]
IC50 (SARS-CoV-2 M^pro [1]; moderate inhibition potency observed in some cases (variable values, possible instability in DMSO), read-out: IC50): 15 ± 8 µM

CO[C@@]1(NC(=O)Cc2ccccc2)C(=O)N2[C@@H](C(=O)OCc3ccccc3)C(C)(C)S[C@@H]21 [compound 25]
IC50 (SARS-CoV-2 M^pro [1]; [5]): 11 ± 6 µM
